Strand notation (5' to 3'): a small letter for the sugar, then the base; units joined by * are phosphorothioate-linked, units joined directly phosphodiester-linked; [ ] holds rarer units or linkages, { } end groups; capitals alone tell only the bases. e = 2'-O-(2-methoxyethyl) (MOE); k = constrained ethyl (cEt); [5mC] = 5-methylcytosine; d = 2'-deoxy (DNA)
System: human PKK mRNA
Assay: Antisense inhibition of human PKK mRNA in HepaRG cells, 1,000 nM, MOE/deoxy/cEt oligonucleotides (Example 3)
Type: cell-based
Conditions: HepaRG cells, 1,000 nM antisense oligonucleotide, Table 29
Outline: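 Readout is percent PKK mRNA reduction against untreated controls, by real-time PCR (RTS3454) adjusted for total RNA via RIBOGREEN. Oligonucleotides, phosphorothioate gapmers of 16 nucleosides with cEt, MOE and deoxy sugars, were delivered at 1,000 nM by electroporation to 20,000 HepaRG cells/well for roughly 24 h.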

Substance	% inhibition
548555 (antisense eA*e[5mC]*kA*d[5mC]*dG*d[5mC]*d[5mC]*dA*dG*dG*dT*dG*dA*kA*kA*eA) [compound 548555]	2%
548575 (eT*eG*kT*d[5mC]*d[5mC]*dT*dT*dT*dA*dA*dA*dG*dT*kA*kT*e[5mC]; antisense) [compound 548575]	18%
548604 (eG*eT*kG*dG*dT*dG*dG*dG*dA*dT*dT*dG*dG*kT*kG*e[5mC]; antisense) [compound 548604]	22%
548596 (eA*eT*kG*dG*d[5mC]*dG*dG*dT*dG*dA*dA*dG*d[5mC]*kA*kG*e[5mC]; antisense) [compound 548596]	20%

Same assay, conditions: HepaRG cells, electroporation with 1,000 nM antisense oligonucleotide, approx. 24 hours, PKK mRNA by RT-PCR (RTS3454), relative to untreated control cells; Table 25 experiment

Substance	% inhibition
548168 (eT*eT*kG*d[5mC]*dG*dA*d[5mC]*d[5mC]*dT*d[5mC]*dG*d[5mC]*dA*kT*kT*eG; antisense) [compound 548168]	61%
548212 (eA*eG*k[5mC]*d[5mC]*d[5mC]*dA*d[5mC]*d[5mC]*dA*dA*d[5mC]*dA*dA*kT*k[5mC]*eT; antisense) [compound 548212]	44%
548194 (eG*e[5mC]*k[5mC]*dA*dA*d[5mC]*dA*dG*dT*dT*dT*d[5mC]*dA*kA*k[5mC]*eT; antisense) [compound 548194]	61%

Same assay, conditions: HepaRG cells, electroporation with 1,000 nM antisense oligonucleotide, approx. 24 hours, PKK mRNA by RT-PCR (RTS3454), relative to untreated control cells; Table 26 experiment

Substance	% inhibition
548252 (antisense eA*e[5mC]*kT*d[5mC]*dG*d[5mC]*d[5mC]*dT*dT*dT*dG*dT*dG*kA*kT*eG) [compound 548252]	33%

Same assay, conditions: HepaRG cells, electroporation with 1,000 nM antisense oligonucleotide, approximately 24 hours, primer probe set RTS3454, relative to untreated control cells; experiment of Table 23

Substance	% inhibition
547996 (antisense eT*eG*kT*dG*dT*d[5mC]*d[5mC]*d[5mC]*dA*dT*dA*d[5mC]*dG*k[5mC]*kA*eA) [compound 547996]	65%
547962 (antisense eT*eT*kT*dG*d[5mC]*dA*dG*dG*dT*dT*dA*dA*dA*kA*kG*eG) [compound 547962]	16%
547931 (eG*eT*kG*dA*dT*dA*dG*dG*dT*dG*d[5mC]*dA*dG*kA*kT*eG; antisense) [compound 547931]	58%
547935 (eA*e[5mC]*kT*d[5mC]*dG*dA*dT*dT*dT*dT*d[5mC]*d[5mC]*dA*kT*kA*e[5mC]; antisense) [compound 547935]	27%
547959 (eG*e[5mC]*kA*dG*dG*dT*dT*dA*dA*dA*dA*dG*dG*k[5mC]*kT*eA; antisense) [compound 547959]	60%
547963 (antisense eG*eT*kT*d[5mC]*dA*dG*dG*dT*dA*dA*dA*dG*dT*kT*k[5mC]*eT) [compound 547963]	22%
547990 (antisense eA*e[5mC]*kT*dG*dA*d[5mC]*dA*dG*d[5mC]*dG*dA*dA*dT*k[5mC]*kA*eT) [compound 547990]	58%

Same assay, conditions: HepaRG cells, electroporation with 1,000 nM antisense oligonucleotide, approximately 24 hours, primer probe set RTS3454, relative to untreated control cells; experiment of Table 24

Substance	% inhibition
548035 (e[5mC]*eA*k[5mC]*dT*dA*dT*dA*dG*dA*dT*dG*d[5mC]*dG*k[5mC]*k[5mC]*eA; antisense) [compound 548035]	44%
548028 (eG*eG*kT*dG*dT*d[5mC]*d[5mC]*dT*dA*dT*dG*dA*dG*kT*kG*eA; antisense) [compound 548028]	38%

Same assay, conditions: PKK mRNA, HepaRG cells, 1,000 nM antisense oligonucleotide; Table 31

Substance	% inhibition
548650 (antisense e[5mC]*eT*kG*dA*dT*d[5mC]*d[5mC]*d[5mC]*dA*d[5mC]*dT*dT*dG*k[5mC]*k[5mC]*e[5mC]) [compound 548650]	21%
548653 (antisense eT*e[5mC]*kG*dG*d[5mC]*dT*d[5mC]*d[5mC]*dT*dG*dG*d[5mC]*dA*kG*k[5mC]*eA) [compound 548653]	46%
548659 (antisense e[5mC]*e[5mC]*kA*dA*d[5mC]*d[5mC]*dT*d[5mC]*dT*dA*dA*dG*dG*k[5mC]*kT*eA) [compound 548659]	17%

Same assay, conditions: Table 19; HepaRG cells, electroporation with 1,000 nM antisense oligonucleotide, approximately 24 hours; PKK mRNA by RT-PCR (RTS3454), relative to untreated control cells

Substance	% inhibition
548123 (antisense eA*eG*kA*d[5mC]*dT*d[5mC]*dT*dG*dG*dA*d[5mC]*dT*dG*k[5mC]*kT*eT) [compound 548123]	49%
548085 (antisense eT*eA*kA*dG*dG*dG*dA*d[5mC]*d[5mC]*dA*d[5mC]*d[5mC]*dT*kG*kA*eA) [compound 548085]	8%
548099 (antisense e[5mC]*eT*k[5mC]*dA*dG*d[5mC]*dG*dA*d[5mC]*dT*dT*dT*dG*kG*kT*eG) [compound 548099]	55%
548124 (antisense eT*eA*kG*dA*d[5mC]*dT*d[5mC]*dT*dG*dG*dA*d[5mC]*dT*kG*k[5mC]*eT) [compound 548124]	51%
548101 (antisense eT*eA*k[5mC]*dT*d[5mC]*dA*dG*d[5mC]*dG*dA*d[5mC]*dT*dT*kT*kG*eG) [compound 548101]	47%

Same assay, conditions: Table 20; HepaRG cells, electroporation with 1,000 nM antisense oligonucleotide, approximately 24 hours; PKK mRNA by RT-PCR (RTS3454), relative to untreated control cells

Substance	% inhibition
547904 (eA*e[5mC]*kT*d[5mC]*dA*dG*d[5mC]*dA*d[5mC]*d[5mC]*dT*dT*dT*kA*kT*eA; antisense) [compound 547904]	56%
547868 (antisense eA*e[5mC]*k[5mC]*dT*dT*dA*dG*dA*d[5mC]*dA*d[5mC]*dA*dT*kT*kA*eA) [compound 547868]	47%
547852 (antisense eA*eT*kA*dA*dA*dT*dG*dT*d[5mC]*dT*d[5mC]*dG*dA*kT*kG*eG) [compound 547852]	67%
547894 (eG*eG*k[5mC]*dA*dA*dT*dT*dG*dT*dT*d[5mC]*d[5mC]*dG*kG*kT*eA; antisense) [compound 547894]	92%
547915 (eT*eG*kG*d[5mC]*dA*dA*d[5mC]*dA*dT*d[5mC]*d[5mC]*dA*d[5mC]*kA*kT*e[5mC]; antisense) [compound 547915]	0%

Same assay, conditions: Table 21 experiment; HepaRG cells, electroporation with 1,000 nM antisense oligonucleotide, approx. 24 hours; PKK mRNA by RT-PCR (RTS3454), relative to untreated control cells

Substance	% inhibition
547759 (antisense eT*eG*kA*dG*dT*d[5mC]*dT*d[5mC]*dT*dT*dG*dT*d[5mC]*kA*k[5mC]*eT) [compound 547759]	73%
547751 (eT*eG*kA*dA*d[5mC]*dG*dG*dT*d[5mC]*dT*dT*d[5mC]*dA*kA*kG*e[5mC]; antisense) [compound 547751]	0%
547765 (antisense eA*eG*kG*dT*dG*dA*dG*dT*d[5mC]*dT*d[5mC]*dT*dT*kG*kT*e[5mC]) [compound 547765]	20%

Same assay, conditions: Table 22 experiment; HepaRG cells, electroporation with 1,000 nM antisense oligonucleotide, approx. 24 hours; PKK mRNA by RT-PCR (RTS3454), relative to untreated control cells

Substance	% inhibition
547904 (eA*e[5mC]*kT*d[5mC]*dA*dG*d[5mC]*dA*d[5mC]*d[5mC]*dT*dT*dT*kA*kT*eA; antisense) [compound 547904]	41%
547868 (antisense eA*e[5mC]*k[5mC]*dT*dT*dA*dG*dA*d[5mC]*dA*d[5mC]*dA*dT*kT*kA*eA) [compound 547868]	71%
547852 (antisense eA*eT*kA*dA*dA*dT*dG*dT*d[5mC]*dT*d[5mC]*dG*dA*kT*kG*eG) [compound 547852]	66%
547894 (eG*eG*k[5mC]*dA*dA*dT*dT*dG*dT*dT*d[5mC]*d[5mC]*dG*kG*kT*eA; antisense) [compound 547894]	91%
547915 (eT*eG*kG*d[5mC]*dA*dA*d[5mC]*dA*dT*d[5mC]*d[5mC]*dA*d[5mC]*kA*kT*e[5mC]; antisense) [compound 547915]	62%

Same assay, conditions: Table 27; HepaRG cells, 1,000 nM antisense oligonucleotide; human PKK mRNA

Substance	% inhibition
548340 (antisense eG*eA*kT*dG*dA*dT*d[5mC]*d[5mC]*dT*d[5mC]*dA*d[5mC]*dA*kT*kA*e[5mC]) [compound 548340]	35%
548335 (antisense eT*eA*kG*d[5mC]*dA*dT*d[5mC]*dA*dT*dG*d[5mC]*d[5mC]*dA*k[5mC]*kA*eG) [compound 548335]	51%
548368 (eG*eT*kG*dT*dT*d[5mC]*dA*dT*dA*d[5mC]*dG*dG*dA*kA*kG*e[5mC]; antisense) [compound 548368]	59%
548364 (antisense eT*eG*kG*d[5mC]*dT*dA*dA*dG*dT*d[5mC]*dA*dG*dG*k[5mC]*k[5mC]*e[5mC]) [compound 548364]	30%

Same assay, conditions: Table 28; HepaRG cells, 1,000 nM antisense oligonucleotide; human PKK mRNA

Substance	% inhibition
548496 (antisense eA*e[5mC]*kT*dG*dA*dA*d[5mC]*d[5mC]*d[5mC]*d[5mC]*d[5mC]*dT*dT*kA*kG*eG) [compound 548496]	0%
548490 (antisense eT*e[5mC]*kT*dG*dG*dT*dT*dA*dG*d[5mC]*d[5mC]*dT*d[5mC]*k[5mC]*kG*eA) [compound 548490]	58%
548475 (eA*eT*k[5mC]*dG*dA*dG*dT*d[5mC]*d[5mC]*dT*dG*d[5mC]*d[5mC]*kT*k[5mC]*e[5mC]; antisense) [compound 548475]	17%
548508 (antisense eG*e[5mC]*kA*d[5mC]*d[5mC]*dA*d[5mC]*d[5mC]*dA*dT*dG*d[5mC]*dG*kG*kT*eT) [compound 548508]	43%
548494 (antisense eT*eG*kT*dG*dA*d[5mC]*d[5mC]*d[5mC]*d[5mC]*d[5mC]*d[5mC]*dA*d[5mC]*k[5mC]*kG*e[5mC]) [compound 548494]	39%
548464 (eG*eT*k[5mC]*d[5mC]*dT*dA*dT*dA*dA*d[5mC]*dT*dA*dT*kA*kT*e[5mC]; antisense) [compound 548464]	0%
548485 (eG*eT*kG*dA*d[5mC]*d[5mC]*d[5mC]*dA*dA*dG*dG*dG*dT*k[5mC]*kG*eA; antisense) [compound 548485]	17%

Same assay, conditions: Table 30; human PKK mRNA, HepaRG cells, 1,000 nM antisense oligonucleotide

Substance	% inhibition
548391 (eG*eT*kA*d[5mC]*dA*dT*dG*dA*d[5mC]*dT*d[5mC]*d[5mC]*dA*kG*kT*eG; antisense) [compound 548391]	34%
548447 (antisense e[5mC]*eA*k[5mC]*dT*dG*dT*d[5mC]*d[5mC]*dT*dA*dT*dG*dT*k[5mC]*kA*e[5mC]) [compound 548447]	59%
548398 (eA*eT*kA*dG*dG*d[5mC]*dA*dA*dT*dT*dG*dT*dT*k[5mC]*k[5mC]*eT; antisense) [compound 548398]	55%

— patent publication US11840686B2, “Modulation of prekallikrein (PKK) expression” (Ionis Pharmaceuticals, Inc., priority 2013, dated 2023)
